Results reported in US9695155B2, “Herbicidal substituted pyrimidinyloxy benzene compounds” (E. I. DU PONT DE NEMOURS AND COMPANY, priority 2013, dated 2017).

Assays:
large (Lg) crabgrass [1] = assay: Test A preemergence; type: in vivo, Digitaria sanguinalis
In short: (§1)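 Injury scores run from 0, no effect, to 100, complete control, judged by eye against untreated plants roughly 10 days after treatment. Chemicals carried a surfactant in a non-phytotoxic solvent and went onto loam–sand soil preemergence or onto one- to two-leaf seedlings postemergence.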

giant foxtail [2] = assay: Test A preemergence; type: in vivo, Setaria faberii
In short: as §1

pigweed [3] = assay: Test A preemergence; type: in vivo, Amaranthus retroflexus
In short: as §1

velvetleaf [4] = assay: Test A preemergence; type: in vivo, Abutilon theophrasti
In short: as §1

large (Lg) crabgrass [5] = assay: Test A postemergence; type: in vivo, Digitaria sanguinalis; conditions: 0 to 100 scale where 0 is no effect and 100 is complete control
In short: as §1

giant foxtail [6] = assay: Test A postemergence; type: in vivo, Setaria faberii; conditions: 0 to 100 scale where 0 is no effect and 100 is complete control
In short: as §1

pigweed [7] = assay: Test A postemergence; type: in vivo, Amaranthus retroflexus; conditions: 0 to 100 scale where 0 is no effect and 100 is complete control
In short: as §1

velvetleaf [8] = assay: Test A postemergence; type: in vivo, Abutilon theophrasti; conditions: 0 to 100 scale where 0 is no effect and 100 is complete control
In short: as §1

wheat, winter = assay: Test C postemergence; type: in vivo, Triticum aestivum
In short: (§2)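 Rated visually on 0–100 (100 = complete control) after 13–15 days under glass. Treatments went onto freshly seeded loam/sand soil or onto emerged plants at the 1- to 4-leaf stage, using a surfactant-containing solvent formulation.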

giant foxtail [9] = assay: Test C postemergence; type: in vivo, Setaria faberii
In short: as §2

ragweed = assay: Test C postemergence; type: in vivo, Ambrosia elatior
In short: as §2

soybean = assay: Test C postemergence; type: in vivo, Glycine max
In short: as §2

wild oat = assay: Test C postemergence; type: in vivo, Avena fatua
In short: as §2

velvetleaf [10] = assay: Test C postemergence; type: in vivo, Abutilon theophrasti
In short: as §2

chickweed = assay: Test C postemergence; type: in vivo, Stellaria media
In short: as §2

[11] = 500 g ai/ha, 0 to 100 scale where 0 is no effect and 100 is complete control
[12] = 16 g ai/ha, postemergence, 0 is no effect, 100 is complete control
[13] = 31 g ai/ha, postemergence, visual rating, scale 0 to 100 (0 no effect, 100 complete control), 13 to 15 days
[14] = 125 g ai/ha, postemergence, visual rating, scale 0 to 100 (0 no effect, 100 complete control)
[15] = Postemergence, 62 g ai/ha, scale 0 to 100 (0 no effect, 100 complete control), 13 to 15 days

SMILES: FC(F)c1cnn(-c2c(Br)cccc2Oc2ncc(Cl)cn2)c1 [Compound 232]
- Crabgrass, Large plant response rating (0 to 100 scale) (large (Lg) crabgrass [1]; 125 g ai/ha): 90
- Crabgrass, Large plant response rating (large (Lg) crabgrass [1]; [11]): 100
- Foxtail, Giant plant response rating (0 to 100 scale) (giant foxtail [2]; 125 g ai/ha): 90
- Foxtail, Giant plant response rating (giant foxtail [2]; [11]): 90
- Pigweed plant response rating (0 to 100 scale) (pigweed [3]; 125 g ai/ha): 100
- Pigweed plant response rating (pigweed [3]; [11]): 100
- Velvetleaf plant response rating (0 to 100 scale) (velvetleaf [4]; 125 g ai/ha): 20
- Velvetleaf plant response rating (velvetleaf [4]; [11]): 100
- Crabgrass, Large plant response rating (large (Lg) crabgrass [5]; 125 g ai/ha): 60
- Plant response rating, Crabgrass, Large (large (Lg) crabgrass [5]; 500 g ai/ha): 90
- Foxtail, Giant plant response rating (giant foxtail [6]; 125 g ai/ha): 70
- Plant response rating, Foxtail, Giant (giant foxtail [6]; 500 g ai/ha): 90
- Pigweed plant response rating (pigweed [7]; 125 g ai/ha): 100
- Plant response rating, Pigweed (pigweed [7]; 500 g ai/ha): 100
- Velvetleaf plant response rating (velvetleaf [8]; 125 g ai/ha): 80
- Plant response rating, Velvetleaf (velvetleaf [8]; 500 g ai/ha): 100
- Plant response rating (0 to 100), Wheat (wheat, winter; [12]): 0
- Wheat plant response rating (wheat, winter; [13]): 0
- Plant response rating, Wheat (wheat, winter; [14]): 5
- Plant response rating, Wheat (wheat, winter; [15]): 0
- Plant response rating (0 to 100), Foxtail, Giant (giant foxtail [9]; [12]): 5
- Foxtail, Giant plant response rating (giant foxtail [9]; [13]): 5
- Plant response rating, Foxtail, Giant (giant foxtail [9]; [14]): 15
- Plant response rating, Foxtail, Giant (giant foxtail [9]; [15]): 5
- Plant response rating (0 to 100), Ragweed (ragweed; [12]): 25
- Ragweed plant response rating (ragweed; [13]): 35
- Plant response rating, Ragweed (ragweed; [14]): 60
- Plant response rating, Ragweed (ragweed; [15]): 50
- Plant response rating (0 to 100), Soybean (soybean; [12]): 30
- Soybean plant response rating (soybean; [13]): 55
- Plant response rating, Soybean (soybean; [14]): 75
- Plant response rating, Soybean (soybean; [15]): 70
- Plant response rating (0 to 100), Oat, Wild (wild oat; [12]): 0
- Oat, Wild plant response rating (wild oat; [13]): 0
- Plant response rating, Oat, Wild (wild oat; [14]): 20
- Plant response rating, Oat, Wild (wild oat; [15]): 5
- Plant response rating (0 to 100), Velvetleaf (velvetleaf [10]; [12]): 35
- Velvetleaf plant response rating (velvetleaf [10]; [13]): 60
- Plant response rating, Velvetleaf (velvetleaf [10]; [14]): 65
- Plant response rating, Velvetleaf (velvetleaf [10]; [15]): 30
- Plant response rating (0 to 100), Chickweed (chickweed; [12]): 5
- Chickweed plant response rating (chickweed; [13]): 30
- Plant response rating, Chickweed (chickweed; [14]): 60
- Plant response rating, Chickweed (chickweed; [15]): 50
